Experimental data from US20240082212A1, “USE OF MDMA FOR TREATMENT OF STRESS-RELATED DISORDERS” (priority 2022, published 2024).
“Also recorded” adds a separate entry of the source.

Experiments:
CD (Sprague Dawley) rats = assay: Rat telemetry: heart rate, blood pressure, body temperature, activity after cumulative SC dosing; type: in vivo
Excerpt: Methods. A total of 42 adult male CD® (Sprague Dawley) rats (Charles River Laboratories) were surgically implanted with DSI radiotelemetry devices by personnel at Charles River Laboratories Raleigh, NC, per their test site SOPs. Telemetry devices supported continuous recording of temperature, activity, blood pressure and heart rate. Telemeterized rats were shipped to the Charles River Laboratories testing facility (Mattawan, MI) and acclimated to the environment for at least 1 week prior to experimentation. Animals were pair-housed in solid bottom cages with nonaromatic bedding. On the dosing day, animals were singly housed and then returned to the paired cohort following the dosing/telemetry recording phase. Diet (Lab Diet® Certified Rodent Diet #5CR4) and tap water via an automatic water system were available ad libitum, except during designated procedures. Temperature and humidity were maintained according to the Testing Facility SOP. Animals were randomized into treatment groups using a standard, by weight, measured value randomization procedure. Body weight was determined for each rat prior to dosing.
As illustrated in the Table, a total of 36 rats were included in the study. The vehicle and 2 test article doses were administered in a volume of 1 mL/kg to each of 3 groups of n=12 telemeterized rats via subcutaneous injection four times on a given day, followed by neurobehavioral evaluations. This series was repeated 3 times on study. Each group received all 3 dose levels of the applicable test or control article in ascending order with a 1-week washout between dose levels.
Mortality/cage side clinical observations were conducted for all study animals at least twice daily beginning upon receipt through termination, except on days of receipt and termination where frequency was at least once daily. Detailed clinical observations were conducted for all study animals prior to each of the four cumulative doses in a series. Individual body weights were conducted for all study animals at transfer, prior to randomization, on the day of dosing on each of the 3 cycles of dosing. The body weights recorded at transfer and prior to randomization are not reported but are maintained in the study file. Veterinary care was available throughout the course of the study, and animals were examined by the veterinary staff as needed based on clinical signs or other changes. All animals were provided with HydroGel the night prior to their respective dosing days to potentially mitigate any animal welfare issues related to fluid loss/dehydration.
Telemetry monitoring was conducted for all animals 2 hours prior to dosing and through to 7.5 hours following the last (4th) cumulative dose of each series, which included continuous data collection of body temperature, activity, heart rate, and blood pressure (systolic, diastolic, and mean arterial) using telemetry.
The total period of time over which the statistical analyses were conducted encompassed the entire dosing period for all animals (i.e., Dose 1 through 7.5 hour post-4th dose) in an effort to draw conclusions regarding the effects of the dosing procedure and cumulative changes by allowing comparisons between the cumulative dosing periods. The following statistical analyses were performed for each analysis segment.
All time-series data comparisons conducted via statistical analysis are relative to the control treatment and are based on the LSMean values. Additionally, the change values used for the statistical analysis were calculated using a baseline of the 2 hours of pre-dose data, prior to the first compound injection of the series. The raw change values were analyzed.

[1] = Rat plasma pharmacokinetics after cumulative (QID) SC injections; details: QID SC; for AUC(0-t) / half-life: CD (Sprague Dawley); for half-life: T1/2, male rat plasma
[2] = racemic MDMA 20 mg/kg/day, S-MDMA 10 mg/kg/day, approximate
[3] = telemetry, cumulative SC dosing, dose groups stated in the value
[4] = male rat plasma, parent analyte, total 5 mg/kg/day
[5] = male rat plasma, parent analyte, total 10 mg/kg/day
[6] = male rat plasma, parent analyte, total 20 mg/kg/day

## CNC(C)Cc1ccc2c(c1)OCO2 (single isomer, unassigned) [S-MDMA, S(+)-MDMA]
CD (Sprague Dawley) rats; 4 hourly SC injections, cumulative doses 5, 10, or 20 mg/kg/day
  hemodynamic parameters (systolic/diastolic/mean arterial blood pressures and heart rate): dose-dependent blood pressure-increasing effects
CD (Sprague Dawley) rats; S-MDMA 10 mg/kg/day, approximate
  period of significantly decreased body temperature compared to R-MDMA (10 mg/kg/day): 0.5-1 hours post initiation of dosing
CD (Sprague Dawley) rats; S-MDMA 5, 10 mg/kg/day, racemic-MDMA 10, 20 mg/kg/day, 4 hourly SC injections
  body temperature response: hyperthermic response
CD (Sprague Dawley) rats; all cumulative doses (5, 10, or 20 mg/kg/day)
  activity (implanted telemetry devices): Activity-increasing effects
CD (Sprague Dawley) rats; maximum change, R-MDMA and racemic MDMA 10, 20 mg/kg/day, S-MDMA 5, 10 mg/kg/day, 4 hourly SC injections
  blood pressure increase [mean arterial pressure]: up to +36%
CD (Sprague Dawley) rats; overall mean magnitude of change, 4 hourly SC injections
  peak body temperatures: 39.5 °C
CD (Sprague Dawley) rats; [2]
  period of significantly increased body temperature compared to R-MDMA (10 mg/kg/day): 3.5-4 hours post initiation of dosing
  period of significantly increased heart rate compared to R-MDMA (10 mg/kg/day): 5-10 hours post initiation of dosing
  period of significantly increased mean arterial blood pressure compared to R-MDMA (10 mg/kg/day): 1.5-3 hours post initiation of dosing
  period of significantly increased systolic blood pressure compared to R-MDMA (10 mg/kg/day): 1.5-3 hours post initiation of dosing
CD (Sprague Dawley) rats; [3]
  Rank Order Blood Pressures (Systolic, Diastolic, and Mean Arterial) Effects: R-MDMA (10 mg/kg/day) < S-MDMA (5 mg/kg/day) < Rac.-MDMA (10 mg/kg/day); also recorded: R-MDMA (20 mg/kg/day) < S-MDMA (10 mg/kg/day) < Rac-MDMA (20 mg/kg/day); also recorded: S-MDMA (0 mg/kg/day) < S-MDMA (5 mg/kg/day) < S-MDMA (10 mg/kg/day); also recorded: R-MDMA (10 mg/kg/day) < S-MDMA (10 mg/kg/day) < Rac-MDMA (20 mg/kg/day)
  Rank Order Body Temperature Effects: R-MDMA (10 mg/kg/day) < S-MDMA (5 mg/kg/day) < Rac.-MDMA (10 mg/kg/day); also recorded: R-MDMA (20 mg/kg/day) < S-MDMA (10 mg/kg/day) < Rac-MDMA (20 mg/kg/day); also recorded: S-MDMA (0 mg/kg/day) < S-MDMA (5 mg/kg/day) < S-MDMA (10 mg/kg/day); also recorded: R-MDMA (10 mg/kg/day) < S-MDMA (10 mg/kg/day) < Rac-MDMA (20 mg/kg/day)
  Rank Order General Activity Effects: R-MDMA (10 mg/kg/day) < S-MDMA (5 mg/kg/day) < Rac.-MDMA (10 mg/kg/day); also recorded: R-MDMA (20 mg/kg/day) < S-MDMA (10 mg/kg/day) < Rac-MDMA (20 mg/kg/day); also recorded: S-MDMA (0 mg/kg/day) < S-MDMA (5 mg/kg/day) < S-MDMA (10 mg/kg/day); also recorded: R-MDMA (10 mg/kg/day) < S-MDMA (10 mg/kg/day) < Rac-MDMA (20 mg/kg/day)
  Rank Order Heart Rate Measurement Effects: R-MDMA (10 mg/kg/day) < S-MDMA (5 mg/kg/day) < Rac.-MDMA (10 mg/kg/day); also recorded: R-MDMA (20 mg/kg/day) < S-MDMA (10 mg/kg/day) < Rac-MDMA (20 mg/kg/day); also recorded: S-MDMA (0 mg/kg/day) < S-MDMA (5 mg/kg/day) < S-MDMA (10 mg/kg/day); also recorded: R-MDMA (10 mg/kg/day) < S-MDMA (10 mg/kg/day) < Rac-MDMA (20 mg/kg/day)
[1]; from 5 to 10 mg/kg/day S-MDMA
  dose dependence of Cmax and AUC0-27 hr: approximately dose proportional manner
[1]; from 5 to 20 mg/kg/day S-MDMA
  dose dependence of Cmax and AUC0-27 hr: greater than dose proportional manner
[1]; male rat plasma, parent analyte (total MDMA after Rac-MDMA), total 10 mg/kg/day of the test article
  Cmax: 1220 ng/mL
[1]; male rat plasma, parent analyte (total MDMA after Rac-MDMA), total 20 mg/kg/day of the test article
  Cmax: 2560 ng/mL
[1]; [4]
  AUC0-27 hr/Dose: 302 *kg*ng/mL/mg
  Cmax/Dose: 89.3 kg·ng/mL/mg
  Tlast: 7 h
[1]; [5]
  AUC0-27 hr: 4130 ng·h/mL
  AUC0-27 hr/Dose: 413 *kg*ng/mL/mg
  AUCTlast: 4030 ng·h/mL
  Cmax/Dose: 122 kg·ng/mL/mg
  T1/2: 1.15 h
  Tlast: 11 h
[1]; male rat plasma, parent analyte, total 10 mg/kg/day, time after 1st injection
  Tmax: 3.5 h
[1]; [6]
  AUC0-27 hr: 15000 ng·h/mL
  AUC0-27 hr/Dose: 748 *kg*ng/mL/mg
  AUCTlast: 15000 ng·h/mL
  Cmax/Dose: 128 kg·ng/mL/mg
  Tlast: 27 h
[1]; male, rat, plasma, sc, 5 mg/kg/day, AUC0-27 hr, male rat plasma, parent analyte, total 5 mg/kg/day
  AUC(0-t): 1510 ng·h/mL
[1]; male, rat, plasma, sc, 5 mg/kg/day, AUCTlast, male rat plasma, parent analyte, total 5 mg/kg/day
  AUC(0-t): 1490 ng·h/mL
[1]; male, rat, plasma, sc, 5 mg/kg/day, parent analyte, total 5 mg/kg/day
  half-life: 0.754 h
[1]; male, rat, plasma, sc, 20 mg/kg/day, parent analyte, total 20 mg/kg/day
  half-life: 3.17 h
[1]; male, Sprague-Dawley (CD), rat, plasma, sc, 5 mg/kg/day, Cmax, male rat plasma, parent analyte, total 5 mg/kg/day of the test article
  Cmax: 447 ng/mL
